For 2 compounds, Kd results are on record in US9625458B2, “Biosensor” (priority 2002, dated 2017).

Experiment [1] has as its target E. coli histidine binding protein (SEQ ID NO:2) variant E167C, fluorophore conjugate (Escherichia coli, UniProt P0AEU0, E189C). Description: biochemical. From the text: (§1) Molecular Cloning. […] Amplified products were cloned into one of the protein expression vectors pAED4 (Doering, “Functional and structural studies of a small f-actin binding domain” in Ph.D. thesis, Massachusetts Institute of Technology, 1992); pKK223-3 (Brosius & Holy, Proc. Natl. Acad. Sci. USA 81:6929-6933, 1984); or pET vectors (Studier et al., Meth. Enzymol. 185:60-89, 1990) (Novagen). N-terminal oligonucleotide primers were designed to clone only the processed periplasmic form, deleting the signal sequence. The C-terminal primer was designed to append the sequence Gly-Ser-Gly-(His)n or Gly-Ser-(His)n, where n=5, 6, or 10. Two tandem stop codons (TAATGA) follow the last His codon. […] Single amino acid substitutions were generated by overlapping PCR mutagenesis (Ho et al., Gene 77:51-59, 1989). All clones and mutations were confirmed by nucleotide sequencing. In the case of arabinose BP, the single cysteine in the wild type sequence was replaced by alanine to eliminate the possibility of reporter group conjugation to this thiol (Miller et al., J. Biol. Chem. 254:7521-7528, 1979). Additionally the sequence of Fe(III) BP was mutated by substitution of Glu57 with Asp to raise the Kd to a concentration range conveniently measured using Fe(III) citrate.
(§2) Fluorophore conjugation to cysteine-substituted bPBPs. Thiol-reactive fluorophores obtained from Molecular Probes (Eugene, Oreg.) were 5-iodoacetamidofluorescein (fluorescein); N-(1-pyrene) iodoacetamide (pyrene); N,N′-dimethyl-N-(iodoacetyl)-N′-(7-nitrobenz-2-oxa-1,3-diazol-4-yl)ethylenediamide (NBD); N-((2-(iodoacetoxy)ethyl)-N-methyl)amino-7-nitrobenz-2-oxa-1,3-diazole (NBDE); and 6-acryloyl-2-dimethylaminonaphthalene (acrylodan). The styryl and naphthyl dyes JPW4039, JPW4042, and JPW4045 (FIG. 3) were synthesized at the University of Connecticut. All fluorophore conjugation steps were typically carried out at room temperature. To protein at a concentration of 100 μM was added tris-(2-carboxyethyl)phosphine HCl to a five-fold molar excess to reduce intermolecular disulfide bonds. A thiol-reactive fluorophore (20 to 25 mM in acetonitrile or dimethyl sulfoxide) was added in small aliquots to a five-fold molar excess over protein. Conjugation proceeded in the dark at room temperature for 4 hours, or overnight at 4° C. Separation of protein from unreacted fluorophore was achieved by exhaustive dialysis or by size-exclusion chromatography. The efficiency of reporter group attachment was assessed by determination of unreacted thiol with Ellman's reagent (Ellman, Arch. Biochem. Biophys. 74:443-450, 1958) or by measuring the ratio of fluorophore to protein from absorbance spectra of the purified conjugate.
(§3) Fluorimetry. All measurements were conducted with an SLM Aminco-Bowman series 2 fluorimeter, with sample stirring at 25° C. Fluorescence emission spectra were acquired with excitation and emission slit widths of 4 and 8 nm, respectively. Photomultiplier tube potential was maintained between 400 and 800 volts. Protein concentrations were in the range of 50 to 1000 nM. […]
(§4) Analyte affinity measurements. […] The emission wavelength monitored was that of maximum difference in intensity between the ligand-free and bound states. For each conjugate, fluorescence intensiometric observations were fit to a hyperbolic binding isotherm for a two-state model (Marvin et al., Proc. Natl. Acad. Sci. USA 94:4366-4371, 1997): […]

Experiment [2] deals with E. coli histidine binding protein (SEQ ID NO:2) variant V163C, fluorophore conjugate (Escherichia coli, UniProt P0AEU0, V185C). The experiment is described as follows: biochemical.
Text: as §1, §2, §3, §4

Experiment [3] concerns the target E. coli histidine binding protein (HBP, SEQ ID NO:2), fluorophore-conjugated cysteine mutants (Escherichia coli, UniProt P0AEU0). The note with it: read-out: range of Kd; range over conjugates, n=4. The source says:
(§5) Molecular Cloning. […] Amplified products were cloned into one of the protein expression vectors pAED4 (Doering, “Functional and structural studies of a small f-actin binding domain” in Ph.D. thesis, Massachusetts Institute of Technology, 1992); pKK223-3 (Brosius & Holy, Proc. Natl. Acad. Sci. USA 81:6929-6933, 1984); or pET vectors (Studier et al., Meth. Enzymol. 185:60-89, 1990) (Novagen). N-terminal oligonucleotide primers were designed to clone only the processed periplasmic form, deleting the signal sequence. The C-terminal primer was designed to append the sequence Gly-Ser-Gly-(His)n or Gly-Ser-(His)n, where n=5, 6, or 10. Two tandem stop codons (TAATGA) follow the last His codon. […] Additionally the sequence of Fe(III) BP was mutated by substitution of Glu57 with Asp to raise the Kd to a concentration range conveniently measured using Fe(III) citrate.
Fluorophore conjugation to cysteine-substituted bPBPs. […] The efficiency of reporter group attachment was assessed by determination of unreacted thiol with Ellman's reagent (Ellman, Arch. Biochem. Biophys. 74:443-450, 1958) or by measuring the ratio of fluorophore to protein from absorbance spectra of the purified conjugate.
(§6) Fluorimetry. […] Fluorescence emission spectra were acquired with excitation and emission slit widths of 4 and 8 nm, respectively. […]

The target in experiment [4] is T1, E. coli sulfate binding protein (SBP), fluorophore-conjugated cysteine mutants (Escherichia coli, UniProt P0AG78).
T1 construct: several single-Cys mutants with fluorophores
The experiment is described as follows: Ligand affinity of sulfate BP fluorescent conjugates (Kd range). The note with it: range over conjugates, n=8.
Text: as §5
Fluorophore conjugation to cysteine-substituted bPBPs. […] The efficiency of reporter group attachment was assessed by determination of unreacted thiol with Ellman's reagent (Ellman, Arch. Biochem. Biophys. 74:443-450, 1958) or by measuring the ratio of fluorophore to protein from absorbance spectra of the purified conjugate. […]
as §6

The target in experiment [5] is T2, E. coli sulfate binding protein variant L65C, fluorophore conjugate (Escherichia coli, UniProt P0AG78, L84C).
T2 construct: Gly-Ser-Gly-(His)n or Gly-Ser-(His)n, n=5, 6 or 10 (C); initiator methionine (N); made in house; host or cells: E. coli strain BL21-DE3
Description: Fluorimetric titration of fluorophore conjugates. The note with it: Fluorescein conjugate, ligand sulfate.
Text: as §1, §2
(§7) Sulfate BP buffer (20 mM Tris-HCl, pH 8.0) was passed through the chloride form of Dowex 1X2-100 strongly basic anion-exchange resin. Sulfate BP solutions were treated by dialysis against treated buffer; Dowex resin held in a separate dialysis tube was also included.
(§8) Fluorimetry. All measurements were conducted with an SLM Aminco-Bowman series 2 fluorimeter, with sample stirring at 25° C. Fluorescence emission spectra were acquired with excitation and emission slit widths of 4 and 8 nm, respectively. Photomultiplier tube potential was maintained between 400 and 800 volts. Protein concentrations were in the range of 50 to 1000 nM. Fluorophore-specific excitation was at the following approximate wavelengths: tryptophan, 290 nm; acrylodan, 390 nm; fluorescein, 485 nm; pyrene, 340 nm; NBD and NBDE, 490 nm; JPW4039, 485 nm; JPW4042, 470 nm; JPW4045, 470 nm.
(§9) Corrections were made for dilution of the protein and for background signal from buffer. Binding curves were fit to binding isotherms using equation 3 or 4, as appropriate.
(§10) Analyte affinity measurements. […] The emission wavelength monitored was that of maximum difference in intensity between the ligand-free and bound states.

The target of experiment [6] is T3, E. coli sulfate binding protein variant W290C, fluorophore conjugate (Escherichia coli, UniProt P0AG78, W309C).
T3 construct: Gly-Ser-Gly-(His)n or Gly-Ser-(His)n, n=5, 6 or 10 (C); initiator methionine (N); made in house; host or cells: E. coli strain BL21-DE3
Description: Fluorimetric titration of fluorophore conjugates. The note with it: JPW4042 conjugate, ligand sulfate.
Text: as §1, §2, §7, §8, §9, §10

Experiment [7] deals with T4, E. coli sulfate binding protein variant Q294C, fluorophore conjugate (Escherichia coli, UniProt P0AG78, Q313C).
T4 construct: Gly-Ser-Gly-(His)n or Gly-Ser-(His)n, n=5, 6 or 10 (C); initiator methionine (N); made in house; host or cells: E. coli strain BL21-DE3
Description: Fluorimetric titration of fluorophore conjugates. The note with it: JPW4042 conjugate, ligand sulfate.
Text: as §1, §2, §7, §8, §9, §10

Experiment [8] deals with T5, E. coli sulfate binding protein variant R134C, fluorophore conjugate (Escherichia coli, UniProt P0AG78, R153C).
T5 construct: Gly-Ser-Gly-(His)n or Gly-Ser-(His)n, n=5, 6 or 10 (C); initiator methionine (N); made in house; host or cells: E. coli strain BL21-DE3
The experiment is described as follows: Fluorimetric titration of fluorophore conjugates.
Text: as §1, §2, §7, §8, §9, §10

For orientation: Kd means the equilibrium constant for the complex coming apart. For `N[C@@H](Cc1c[nH]cn1)C(=O)O` [histidine], the Kd is 60 nM in experiment [1]; 400 nM in experiment [2] (Acrylodan conjugate, peristeric site); 250 nM in experiment [2] (JPW4042 conjugate, peristeric site); 2370 nM in experiment [2] (NBD conjugate, peristeric site); 250 nM in experiment [2] (V163C-JPW4042); 60 to 2370 nM in experiment [3].

Consider `O=S(=O)(O)O` [sulfate], for which the Kd in experiment [4] was 320 to 29000 nM; in experiment [5], 1090 nM; in experiment [6] it was 336 nM; in experiment [7], 830 nM; in experiment [8] (Acrylodan conjugate, R134C, ligand sulfate) it was 4170 nM; in experiment [8] (Fluorescein conjugate, R134C, ligand sulfate), 323 nM. Further, the Kd in experiment [8] (JPW4039 conjugate, R134C, ligand sulfate) is 7500 nM; in experiment [8] (JPW4042 conjugate, R134C, ligand sulfate) it was 29100 nM; in experiment [8] (NBD conjugate, R134C, ligand sulfate), 22400 nM; in experiment [8] (R134C-acrylodan) it was around 4000 nM.
